# Test results from US20230346717A1, “IDENTIFICATION AND USE OF COMPOUNDS IN THE TREATMENT OR PREVENTION OF SEVERE ACUTE RESPIRATORY SYNDROME CORONAVIRUS 2” (priority 2020, published 2023).
# Counter-ions that a name gives are not always drawn.
# Tests used:
# Type in all cases: cell-based, human
# CTSH = test: Gene expression assay, lysosome gene CTSH; conditions: probe 202295_s_at; ARPE-19/HPV-16, 10 μM, 24 h
# From the text: (§1) A drug screen was used to test agents having the potential to treat or prevent SARS-CoV-2 infection. The retinal pigment epithelia cell line, ARPE-19/HPV-16, was chosen to establish a database of drug profiles because of its non-cancerous, human origin, with a normal karyotype. ARPE-19/HPV-16 can be easily grown as monolayer in 96-well plates and expresses a variety of well known, neuronal, cell surface receptors that include the dopamine receptor D2, the serotonin receptors 1A, 2A, and 2C, the muscarinic receptor M3, and the histamine receptor H1.
# (§2) Cell lines were propagated according to supplier's specifications (ATCC Manassas, VA). Compounds were obtained from Sigma (St. Louis, MO) or Vanda Pharmaceuticals (Washington, DC). Cells were aliquoted on 96-well plates (˜2×10^5 cells/well) and incubated for 24 hours prior to providing fresh media with a drug, or the drug vehicle (water, dimethyl sulfoxide, ethanol, methanol, or phosphate-buffered saline solution). Drugs were diluted 1000-fold in buffered Advanced D-MEM/F-12 culture medium (Invitrogen, Carlsbad, CA) containing nonessential amino acids and 110 mg/L sodium pyruvate. […]
# (§3) Cells were harvested 24 hours after treatment and RNA was extracted using the RNeasy 96 protocol (Qiagen, Valencia, CA). […] A total of 708 microarrays were analyzed including 74 for 18 antipsychotics, 499 for 448 other compounds, and 135 for vehicle controls. […]
# RNASET2 = test: Gene expression assay, lysosome gene RNASET2; conditions: probe 217983_s_at; ARPE-19/HPV-16, 10 μM, 24 h
# From the text: as §1, §2, §3
# MAR3 = test: Gene expression assay, lysosome gene MAR3; conditions: probe 213256_at; ARPE-19/HPV-16, 10 μM, 24 h
# From the text: as §1, §2, §3
# CPQ = test: Gene expression assay, lysosome gene CPQ; conditions: ARPE-19/HPV-16, 10 μM, 24 h
# From the text: as §1
# Cell lines were propagated according to supplier's specifications (ATCC Manassas, VA). Compounds were obtained from Sigma (St. Louis, MO) or Vanda Pharmaceuticals (Washington, DC). Cells were aliquoted on 96-well plates (˜2×10^5 cells/well) and incubated for 24 hours prior to providing fresh media with a drug, or the drug vehicle (water, dimethyl sulfoxide, ethanol, methanol, or phosphate-buffered saline solution). Drugs were diluted 1000-fold in buffered Advanced D-MEM/F-12 culture medium (Invitrogen, Carlsbad, CA) containing nonessential amino acids and 110 mg/L sodium pyruvate. In these conditions, no significant changes of pH were expected, which was confirmed by the monitoring of the pH indicator present in the medium.
# A final 10 μM drug concentration was chosen because it is believed to fit in the range of physiological relevance. Microscopic inspection of each well was conducted at the end of the treatment to discard any samples where cells had morphological changes consistent with apoptosis. It was also verified that the drug had not precipitated in the culture medium.
# Cells were harvested 24 hours after treatment and RNA was extracted using the RNeasy 96 protocol (Qiagen, Valencia, CA). Gene expression for 22,238 probe sets of 12,490 genes was generated with U133A2.0 microarrays following the manufacturer's instructions (Affymetrix, Santa Clara, CA). Drugs were profiled in duplicate or triplicate, with multiple vehicle controls on each plate. A total of 708 microarrays were analyzed including 74 for 18 antipsychotics, 499 for 448 other compounds, and 135 for vehicle controls.
# The raw scan data were first converted to average difference values using MAS 5.0 (Affymetrix). The average difference values of both treatment and control data were set to a minimum threshold of 50 if below 50. For each treatment instance, all probe sets were then ranked based on their amplitude, or level of expression relative to the vehicle control (or average of controls when more than one was used). Amplitude was defined as the ratio of expression (t−v)/[(t+v)/2] where t corresponds to treatment instance and v to vehicle instance. […]
# CTBS = test: Gene expression assay, lysosome gene CTBS; conditions: probe 218924_s_at; ARPE-19/HPV-16, 10 μM, 24 h
# From the text: as §1, §2, §3
# RAB38 = test: Gene expression assay, lysosome gene RAB38; conditions: probe 219412_at; ARPE-19/HPV-16, 10 μM, 24 h
# From the text: as §1, §2, §3
# lysosome pathway genes = test: Enrichment analysis of genes downregulated by amantadine (top 500 differentially expressed probes); conditions: ARPE-19/HPV-16, 10 μM, 24 h
# From the text: as §1, §2, §3
smiles,measurement,setting,value
NC12CC3CC(CC(C3)C1)C2 [Amantadine Hydrochloride],avg_tx (log2) CTSH,CTSH,9.62 log2
same,diff (log2) CTSH,CTSH,−2.51 log2
same,avg_tx (log2) RNASET2,RNASET2,8 log2
same,diff (log2) RNASET2,RNASET2,−1.81 log2
same,avg_tx (log2) MAR3,MAR3,5.55 log2
same,diff (log2) MAR3,MAR3,−1.57 log2
same,avg_tx (log2) CPQ,CPQ; probe 203501_at,6.41 log2
same,diff (log2) CPQ,CPQ; probe 203501_at,−1.55 log2
same,avg_tx (log2) CPQ,CPQ; probe 208454_s_at,7.3 log2
same,diff (log2) CPQ,CPQ; probe 208454_s_at,−1.34 log2
same,avg_tx (log2) CTBS,CTBS,6.59 log2
same,diff (log2) CTBS,CTBS,−1.32 log2
same,avg_tx (log2) RAB38,RAB38,6.51 log2
same,diff (log2) RAB38,RAB38,−1.3 log2
same,expression reduction of the top 500 differentially expressed probes (383 genes),lysosome pathway genes,at least 50%
